Here are results for three compounds from US6670377B1, “Quinoline derivatives, having in particular antiviral properties, preparation and biological applications thereof” (Centre National de la Recherche, priority 1997, dated 2003).

Series [1] deals with HIV-1. Conditions: 72 hours, ELISA p24. A general note: In an ELISA, binding on a coated surface is turned into a signal by an enzyme label.
Method: The activity test consists of putting the cells of an established lymphocyte line, CEM cells, in contact with a supernatant of infected cells containing the infectious virions. The test is carried out in the following manner: The CEM cells, cultured in suspension in RPMI medium supplemented with 10% of foetal calf serum, are infected with a viral supernatant with a multiplicity of infection of 0.5. After 2 hours of infection, the cells are washed twice with RPMI medium in a manner so as to eliminate the residual viral particles. Finally, the cells are replaced in RPMI medium containing the compound according to the invention. The viral load is evaluated after 72 hours of culture. This is quantified in two of the following ways:
1) The quantity of viral protein p24 is determined by an ELISA test.
For series [2], the target named is T1, HIV-1 integrase (Human immunodeficiency virus type 1 group M subtype B, UniProt P04585). The series is described as follows: endonucleolytic cleavage test of HIV-1 integrase (21 bp oligonucleotide). Format: biochemical. The settings on record: read-out: endonucleolytic cleavage, concentration necessary to block 50% of the activity of HIV-1 integrase.
For series [3], the target named is T1, HIV-1 integrase. The series is described as follows: strand transfer test of HIV-1 integrase. Format: biochemical. The settings on record: read-out: strand transfer, concentration necessary to block 50% of the activity of HIV-1 integrase.
For series [4], the target named is T1, HIV-1 integrase. Kind of series: disintegration test of HIV-1 integrase. Format: biochemical. Conditions: read-out: disintegration, concentration necessary to block 50% of the activity of HIV-1 integrase.
The target in series [5] is T1, HIV-1 integrase. The settings on record: three tests: endonucleolytic cleavage, strand transfer, disintegration. The method, then:
1—The endonucleolytic activity of the protein is tested on a double-strand oligonucleotide of 21 base pairs, radiolabelled at the 5′ end. The activity of the integrase is expressed by elimination of the dinucleotide at the 3′ end.
2—The strand transfer test is carried out with a double-strand oligonucleotide of 21 base pairs mimicking the end of the viral DNA, the 3′ terminal dinucleotide of which has been supressed. The activity of the protein is expressed by the covalent insertion of this oligonucleotide in a homologous oligonucleotide.
3—The disintegration test is carried out with a substrate mimicking the structure of the integrated viral DNA. The quantity of DNA excised by the integrase is measured. This last test only quantifies the catalytic activity of the protein excluding its fixation activity on the DNA.

The next series has as its target EcoRI restriction enzyme (Escherichia coli, UniProt P00642). The series is described as follows: inhibition of cleavage of linearized pSP65 plasmid by EcoRI. The settings on record: 4 hours, 0.1 units EcoRI. Format: biochemical. The method, then: The catalytic site of HIV-1 integrase is very close to that of the EcoRI restriction enzyme. The compounds which block both proteins are therefore catalytic inhibitors of integrase.
The linearized plasmid is incubated for 4 hours in the presence of 0.1 units of the EcoRI enzyme. The enzyme activity is monitored by the appearance of the cleavage products on 1.2% agarose gel.

Series [6] has as its target T2, reverse transcriptase enzyme of the HIV-1 virus (Human immunodeficiency virus type 1 group M subtype B, UniProt P04585).
T2 construct: endogenous in cells; host or cells: viral particles concentrated from the supernatant of a CEM cell culture, lysed in non-ionic detergent
The series is described as follows: reverse transcriptase activity of lysed viral particles on polyrC/oligo(dG). The class given is biochemical. Conditions: polyrC matrix, oligo (dG) primer. Here is the method: The specificity of the compounds according to the invention for integrase is estimated by an activity test on the reverse transcriptase enzyme of the HIV-1 virus. This test is carried out in the following manner: The viral particles of a supernatant of a CEM cell culture (established lymphocyte line) are concentrated by centrifugation at 30,000 RPM. These viral particles are lysed in a non-ionic detergent and their reverse transcriptase activity is tested on a substrate formed from a hybridized oligo (dG) primer on a polyrC matrix. In the presence of radiolabelled nucleotide dG, the transcriptase activity is expressed by the formation of labelled polynucleotide which can be precipitated in trichloroacetic acid. This confirms that a dideoxynucleotide ddG inhibits the formation of acid precipitatable.

Series [7] concerns HIV-1. The series is described as follows: HIV-1 replication in CEM cells, infectious virus load on Hela β-gal CD4+ cells. The class given is cell-based. The settings on record: read-out: β-gal activity, 50% effectiveness on production of viral particles, 72 hours, HeLa β-gal colorimetric test, global antiviral effect. The text has this:
This is quantified in two of the following ways:

A further series concerns CEM cells. The series is described as follows: toxicity on CEM cells, MTT biotransformation test. Format: cell-based. Here is the method: (§1) The toxicity of the compounds is tested by a biotransformation test of MTT to formazan by cellular mitochondrial dehydrogenases.
(Formazan colour is commonly taken as a measure of viable cells.)

In series [8] the test system is HIV-1. Kind of series: late stages of HIV-1 replication in TNF-activated ACH2 cells, p24 ELISA. The class given is cell-based. The settings on record: 24 hours; for effect on the production of viral particles (in words): ACH2 cells. The method, then: (§2) The compounds according to the present invention were tested on the late stages of the replication of HIV-1. The test is as follows: The ACH2 cells which integrated HIV-1 viral DNA were used. […] When the cells are used in the presence of TNF, they express the HIV virus from the integrated provirus. The production of viral particles is detected 24 hours after activation. The viral load in the supernatant is quantified by the ELISA p24 test.

The next series deals with ACH2 cells. The series is described as follows: toxicity on ACH2 cells, MTT biotransformation test. Format: cell-based. The method, then:
as §1, §2

Entries after “also recorded” stand apart in the source; their conditions may differ. Where only a bound is given, the exact number is not on record here.

Chain of EcoRI restriction enzyme (P00642 whole entry): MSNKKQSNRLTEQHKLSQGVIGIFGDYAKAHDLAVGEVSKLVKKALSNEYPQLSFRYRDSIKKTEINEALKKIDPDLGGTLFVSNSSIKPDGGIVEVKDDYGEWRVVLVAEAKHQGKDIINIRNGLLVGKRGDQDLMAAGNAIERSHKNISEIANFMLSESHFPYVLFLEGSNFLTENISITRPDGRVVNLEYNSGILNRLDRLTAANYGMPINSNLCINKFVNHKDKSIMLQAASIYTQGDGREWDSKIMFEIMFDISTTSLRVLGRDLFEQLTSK

On to `O=C([O-])c1ccc2ccc(C=Cc3ccc(O)c(O)c3)nc2c1O.[Na+]` [Compound 2, sodium salt of 8-hydroxy-2-[2-[(3,4-dihydroxyphenyl)ethenyl]]7-quinoline-carboxylic acid], for which the “anti-viral effect, production of viral particles / replication in CEM cells (in words)” value in the series on HIV-1 [1] is “blocks the production of viral particules; also recorded: same anti-viral effect”.

Take `O=C(O)c1ccc2ccc(/C=C/c3cc(O)c(O)c(O)c3)nc2c1O` [Compound 3, 8-hydroxy-2-[2-[(3.4,5-trihydroxyphenyl)ethenyl]]7-quinoline carboxylic acid]: the IC50 turned out to be 320 nM at HIV-1 integrase [2], 310 nM at HIV-1 integrase [3] and 56 nM on HIV-1 integrase [4]. Moreover, the “anti-integrase activity in the tests for in vitro activity (in words)” value at HIV-1 integrase [5] is on record as “inhibit the three activites”.

Regarding `O=C(O)c1ccc2ccc(/C=C/c3ccc(O)c(O)c3)nc2c1O` [Compound 1, 8-hydroxy-2-[2-[(3,4-dihydroxyphenyl)ethenyl]]7-quinoline carboxylic acid], the “anti-integrase activity in the tests for in vitro activity (in words)” value at HIV-1 integrase [5] is “inhibit the three activites”. Also, on EcoRI restriction enzyme, the “cleavage by EcoRI (in words)” value is given as “strongly inhibited”. For the same compound, in series [6], the “reverse transcription inhibition (in words)” value was “no reverse transcription inhibition”. Besides, the EC50 in the series on HIV-1 [7] turned out to be 4000 nM. Also, the “MTT, toxicity by biotransformation” value with CEM cells and in the series on ACH2 cells was more than 100 µM each time. In addition, the “toxicity according to the MTT test (in words)” value in the series with CEM cells (up to 100 μM, maximum concentration tested) is listed as “devoid of toxicity”. The “effect on the production of viral particles (in words)” value with HIV-1 [8] (above 50 μM) was “slight inhibition”; with HIV-1 [8] (concentrations up to 100 μM), “No other significant effect”. Besides, the IC50 in the series on HIV-1 [8] (Human immunodeficiency virus 1, ACH-2, ACH2 cells activated by TNF, effect on the late stages, read-out: p24 test, inhibitory 50% concentration) is more than 100000 nM.
